The text below walks through data of publication PMC4904371, “Luteolin inhibits GABAA receptors in HEK cells and brain slices” (Scientific Reports, 2016).

In one assay the target is T1, α5β2 GABAAR (Rattus norvegicus, UniProt P19969+P63138).
T1 construct: gene Gabra5; full-length subunits in pcDNA3.1, co-transfected in HEK293T cells; GFP as separate marker; pentamer
Description: whole-cell patch clamp, inhibition of GABA-evoked current. Format: cell-based.

For another assay, the target named is T2, α1β2 GABAAR (Rattus norvegicus, UniProt P62813+P63138).
T2 construct: gene Gabra1; full-length subunits in pcDNA3.1, co-transfected in HEK293T cells; GFP as separate marker; pentamer
T2 sequence (P62813 28-455): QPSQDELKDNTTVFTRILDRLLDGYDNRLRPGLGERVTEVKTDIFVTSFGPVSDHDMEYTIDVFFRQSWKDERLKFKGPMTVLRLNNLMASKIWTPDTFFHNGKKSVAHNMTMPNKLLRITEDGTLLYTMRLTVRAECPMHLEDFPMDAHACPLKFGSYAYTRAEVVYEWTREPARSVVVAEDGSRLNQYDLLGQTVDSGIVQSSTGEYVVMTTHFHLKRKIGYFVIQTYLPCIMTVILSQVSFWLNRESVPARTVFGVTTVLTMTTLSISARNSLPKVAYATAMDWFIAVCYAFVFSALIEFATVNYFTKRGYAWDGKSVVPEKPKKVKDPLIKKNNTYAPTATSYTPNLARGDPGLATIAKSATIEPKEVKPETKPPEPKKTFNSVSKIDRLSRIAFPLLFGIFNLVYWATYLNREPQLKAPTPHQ
T2 sequence (P63138 26-474): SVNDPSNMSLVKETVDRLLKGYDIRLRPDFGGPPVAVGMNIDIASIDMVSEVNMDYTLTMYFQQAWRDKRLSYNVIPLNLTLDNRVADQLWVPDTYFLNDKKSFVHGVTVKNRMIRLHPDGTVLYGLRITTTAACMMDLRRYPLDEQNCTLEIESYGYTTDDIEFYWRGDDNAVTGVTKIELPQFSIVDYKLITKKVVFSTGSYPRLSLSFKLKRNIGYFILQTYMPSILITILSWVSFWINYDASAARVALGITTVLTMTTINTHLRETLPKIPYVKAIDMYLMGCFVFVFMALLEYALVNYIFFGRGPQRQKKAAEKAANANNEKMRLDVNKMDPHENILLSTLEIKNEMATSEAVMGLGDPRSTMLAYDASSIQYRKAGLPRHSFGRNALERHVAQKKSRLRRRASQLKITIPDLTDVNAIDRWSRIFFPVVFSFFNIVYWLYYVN
The assay is described as above. Format: cell-based.

T1 sequence (P19969 26-464): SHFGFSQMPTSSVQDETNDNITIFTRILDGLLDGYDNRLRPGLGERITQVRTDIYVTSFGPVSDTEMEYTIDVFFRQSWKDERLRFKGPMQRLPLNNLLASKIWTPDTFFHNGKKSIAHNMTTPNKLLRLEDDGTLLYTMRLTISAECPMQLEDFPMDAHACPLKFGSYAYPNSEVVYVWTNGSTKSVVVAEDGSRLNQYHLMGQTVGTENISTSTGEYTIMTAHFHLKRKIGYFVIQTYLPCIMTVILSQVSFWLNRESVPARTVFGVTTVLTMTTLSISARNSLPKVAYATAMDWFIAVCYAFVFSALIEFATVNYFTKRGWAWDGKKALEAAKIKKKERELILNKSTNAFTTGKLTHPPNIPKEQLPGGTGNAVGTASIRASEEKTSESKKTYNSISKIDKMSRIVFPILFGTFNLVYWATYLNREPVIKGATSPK
T1 sequence (P63138 26-474): as the sequence (P63138 26-474) above

As a reminder, the IC50 is the concentration that inhibits the measured activity by half. A higher IC50 goes with weaker potency in that assay. Turning to `O=c1cc(-c2ccc(O)c(O)c2)oc2cc(O)cc(O)c12` [luteolin, 2-(3,4-Dihydroxyphenyl)-5,7-dihydroxy-4-chromenone], the IC50 turned out to be 25.4 ± 9 µM on α5β2 GABAAR and 10.8 ± 4.46 µM against α1β2 GABAAR.
